Reference: PubChem BioAssay AID256 (DTP/NCI, 2004)
Where “and” joins values, the source holds several entries; their conditions need not be identical. Equal values may be shown once. Inconclusive results and toxic doses are left out.

Tested on: CD2F1 mice, L1210 leukemia ip, survival T/C
Assay: NCI In Vivo Anticancer Drug Screen. Data for tumor model L1210 Leukemia (intraperitoneal) in CD2F1 (CDF1) mice
Conditions: endpoint: mean survival time, higher = longer survival
Outline: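 Each value reflects a quotient of treated over vehicle control outcomes in mice with a transplanted tumor.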

[1] = dose: 100.0 mg/kg/injection, schedule: Q04DX002 (ip), vehicle: saline with Tween-80
[2] = dose: 100.0 mg/kg/injection, schedule: Q01DX009 (ip), vehicle: Klucel (hydroxypropylcellulose) (HPC)
[3] = dose: 100.0 mg/kg/injection, schedule: Q01DX001 (ip), vehicle: saline
[4] = dose: 200.0 mg/kg/injection, schedule: Q01DX001 (ip), vehicle: saline
[5] = dose: 400.0 mg/kg/injection, schedule: Q01DX001 (ip), vehicle: saline
[6] = dose: 100.0 mg/kg/injection, schedule: Q01DX001 (ip), vehicle: saline with Tween-80
[7] = dose: 200.0 mg/kg/injection, schedule: Q01DX001 (ip), vehicle: saline with Tween-80
[8] = dose: 400.0 mg/kg/injection, schedule: Q01DX001 (ip), vehicle: saline with Tween-80
[9] = dose: 100.0 mg/kg/injection, schedule: Q04DX003 (ip), vehicle: saline with Tween-80
[10] = dose: 200.0 mg/kg/injection, schedule: Q04DX003 (ip), vehicle: saline with Tween-80
[11] = dose: 400.0 mg/kg/injection, schedule: Q04DX003 (ip), vehicle: saline with Tween-80
[12] = dose: 100.0 mg/kg/injection, schedule: Q04DX003 (ip), vehicle: other
[13] = dose: 100.0 mg/kg/injection, schedule: Q01DX009 (ip), vehicle: saline with Tween-80
[14] = dose: 200.0 mg/kg/injection, schedule: Q01DX009 (ip), vehicle: saline with Tween-80
[15] = dose: 400.0 mg/kg/injection, schedule: Q01DX009 (ip), vehicle: saline with Tween-80
[16] = dose: 200.0 mg/kg/injection, schedule: Q04DX003 (ip), vehicle: other
[17] = dose: 400.0 mg/kg/injection, schedule: Q04DX003 (ip), vehicle: other

`O=C(OCC1OC(n2nc(N3CCOCC3)c(=O)[nH]c2=O)C(OC(=O)c2ccccc2)C1OC(=O)c1ccccc1)c1ccccc1` (stereo not drawn) was tested, and the T/C (dose: 12.5 mg/kg/injection, schedule: Q01DX005 (ip), vehicle: distilled water + Tween-80) was 98 % of control, the T/C (dose: 25.0 mg/kg/injection, schedule: Q01DX005 (ip), vehicle: distilled water + Tween-80) was 103 % of control and the T/C (dose: 50.0 mg/kg/injection, schedule: Q01DX005 (ip), vehicle: distilled water + Tween-80) was 92 % of control.

`OCC1OC(n2ncc3c2N=CN2CCN=C32)C(O)C1O` (stereo not drawn) was tested, and the T/C (dose: 12.5 mg/kg/injection, schedule: Q01DX009 (ip), vehicle: water) was 95 % of control, the T/C (dose: 25.0 mg/kg/injection, schedule: Q01DX009 (ip), vehicle: water) was 98 % of control and the T/C (dose: 50.0 mg/kg/injection, schedule: Q01DX009 (ip), vehicle: water) was 102 % of control. For the same compound, the T/C (dose: 100.0 mg/kg/injection, schedule: Q01DX009 (ip), vehicle: water) was 95 % of control and the T/C (dose: 200.0 mg/kg/injection, schedule: Q01DX009 (ip), vehicle: water) was 95 % of control.

For `CC1(c2ccccc2)C=CC(=O)CC1` (stereo not drawn), the T/C [1] was 93 % of control, the T/C (dose: 200.0 mg/kg/injection, schedule: Q04DX002 (ip), vehicle: saline with Tween-80) was 101 % of control and the T/C (dose: 400.0 mg/kg/injection, schedule: Q04DX002 (ip), vehicle: saline with Tween-80) was 97 % of control.

With `O=C1C=C(Nc2nc(O)cc(=O)[nH]2)c2ccccc2C1=O` the T/C [2] was 97 % of control.

`[Co].c1ccc2c3[n-]c(c2c1)/N=c1\[n-]/c(c2ccccc12)=N\c1[n-]c(c2ccccc12)/N=c1\[n-]/c(c2ccccc12)=N\3` was tested, and the T/C (dose: 25.0 mg/kg/injection, schedule: Q04DX002 (ip), vehicle: saline with Tween-80) was 90 % of control, the T/C (dose: 50.0 mg/kg/injection, schedule: Q04DX002 (ip), vehicle: saline with Tween-80) was 93 % of control and the T/C [1] was 90 % of control.

For `COc1cc(-c2ccc(N=Nc3c(O)ccc4ccccc34)c(OC)c2)ccc1N=Nc1ccc2c(S(=O)(=O)O)cc(S(=O)(=O)O)c(N)c2c1O`, the T/C (dose: 50.0 mg/kg/injection, schedule: Q01DX001 (ip), vehicle: saline) was 91 % of control, the T/C [3] was 94 % of control and the T/C (dose: 100.0 mg/kg/injection, schedule: Q04DX003 (ip), vehicle: saline) was 94 % of control. The T/C [4] was 88 % of control, the T/C (dose: 200.0 mg/kg/injection, schedule: Q04DX003 (ip), vehicle: saline) was 95 % of control and the T/C [5] was 94 % of control.

In the case of `COc1ccc(-c2nc(N)ncc2C)cc1`, the T/C (dose: 100.0 mg/kg/injection, schedule: Q04DX002 (ip), vehicle: other) is reported as 96 % of control, the T/C (dose: 200.0 mg/kg/injection, schedule: Q04DX002 (ip), vehicle: other) is reported as 96 % of control and the T/C (dose: 400.0 mg/kg/injection, schedule: Q04DX002 (ip), vehicle: other) is reported as 101 % of control.

With `CN(C)C(=O)Oc1cccc(NC(=O)Nc2cccc(OC(=O)N(C)C)c2)c1` the T/C [6] was 105 % of control, the T/C [7] was 98 % of control and the T/C [8] was 97 % of control.

`O=C(CCc1ccc(C(=O)C[n+]2ccccc2)cc1)C[n+]1ccccc1` was tested, and the T/C (dose: 0.5 mg/kg/injection, schedule: Q04DX003 (ip), vehicle: saline) was 104 % of control, the T/C (dose: 1.0 mg/kg/injection, schedule: Q04DX003 (ip), vehicle: saline) was 101 % of control and the T/C (dose: 2.0 mg/kg/injection, schedule: Q04DX003 (ip), vehicle: saline) was 95 % of control.

In the case of `CCCCNCC(C)C(=O)OC` (stereo not drawn), the T/C [9] is reported as 98 % of control, the T/C [10] is reported as 98 % of control and the T/C [11] is reported as 102 % of control.

`O=S1(=O)CC23C=CC=CC2(CCCC3)C1Cl` (stereo not drawn) was tested, and the T/C [12] was 94 % of control.

In the case of `COC(=O)N1c2ccc(C)cc2C=CC1C#N` (stereo not drawn), the T/C [13] is reported as 95 % of control, the T/C [9] is reported as 102 % of control and the T/C [14] is reported as 100 % of control. The T/C [10] was 105 % of control, the T/C [15] was 95 % of control and the T/C [11] was 90 % of control.

`N#CC(Cl)(Cl)C(N)=O` was tested, and the T/C (dose: 1.56 mg/kg/injection, schedule: Q04DX002 (ip), vehicle: saline) was 102 % of control, the T/C (dose: 3.13 mg/kg/injection, schedule: Q04DX002 (ip), vehicle: saline) was 92 % of control and the T/C (dose: 6.25 mg/kg/injection, schedule: Q04DX002 (ip), vehicle: saline) was 98 % of control.

`C[N+](C)(C)CCOC(=O)CCC(=O)OCC[N+](C)(C)C` was tested, and the T/C (dose: 0.31 mg/kg/injection, schedule: Q01DX009 (ip), vehicle: saline sonified) was 92 % of control, the T/C (dose: 0.63 mg/kg/injection, schedule: Q01DX009 (ip), vehicle: saline sonified) was 96 % of control and the T/C (dose: 1.25 mg/kg/injection, schedule: Q01DX009 (ip), vehicle: saline sonified) was 103 % of control. For the same compound, the T/C (dose: 6.25 mg/kg/injection, schedule: Q04DX003 (ip), vehicle: saline) was 101 % of control and the T/C (dose: 12.5 mg/kg/injection, schedule: Q04DX003 (ip), vehicle: saline) was 100 % of control.

For `O=C(O)/C=C/S(=O)(=O)O`, the T/C (dose: 9.5 mg/kg/injection, schedule: Q01DX001 (ip), vehicle: saline) was 96 % of control, the T/C (dose: 19.0 mg/kg/injection, schedule: Q01DX001 (ip), vehicle: saline) was 98 % of control and the T/C (dose: 38.0 mg/kg/injection, schedule: Q01DX001 (ip), vehicle: saline) was 98 % of control. The T/C (dose: 75.0 mg/kg/injection, schedule: Q01DX001 (ip), vehicle: saline) was 100 % of control.

With `Cc1cccc(Cl)c1NC(=O)C(C)C` the T/C [12] was 94 % of control, the T/C [16] was 91 % of control and the T/C [17] was 87 % of control.

For `O=C(NCCN=Cc1ccccc1)c1ccccc1`, the T/C [6] was 108 % of control, the T/C [13] was 98 % of control and the T/C [7] was 101 % of control. For the same compound, the T/C [14] was 101 % of control, the T/C [8] was 95 % of control and the T/C [15] was 97 % of control.

With `C1CCC2OCCOCCOC3CCCCC3OCCOCCOC2C1` (stereo not drawn) the T/C (dose: 3.12 mg/kg/injection, schedule: Q01DX009 (ip), vehicle: Klucel (hydroxypropylcellulose) (HPC)) was 108 % of control, the T/C (dose: 6.25 mg/kg/injection, schedule: Q01DX009 (ip), vehicle: Klucel (hydroxypropylcellulose) (HPC)) was 98 % of control and 103 % of control and the T/C (dose: 12.5 mg/kg/injection, schedule: Q01DX009 (ip), vehicle: Klucel (hydroxypropylcellulose) (HPC)) was 87 % of control and 100 % of control. For the same compound, the T/C (dose: 25.0 mg/kg/injection, schedule: Q01DX009 (ip), vehicle: Klucel (hydroxypropylcellulose) (HPC)) was 102 % of control and 103 % of control, the T/C (dose: 50.0 mg/kg/injection, schedule: Q01DX009 (ip), vehicle: Klucel (hydroxypropylcellulose) (HPC)) was 100 % of control and 104 % of control and the T/C [2] was 91 % of control.

For `CCN(CC)c1ccc(N=Nc2c(C)nc(N)nc2-c2ccccc2)cc1`, the T/C (dose: 150.0 mg/kg/injection, schedule: Q01DX001 (ip), vehicle: saline) was 97 % of control.

In the case of `CCCCCCCCCCCCCC[n+]1ccc(C(N)=O)cc1`, the T/C (dose: 12.5 mg/kg/injection, schedule: Q04DX003 (ip), vehicle: saline with Tween-80) is reported as 107 % of control and the T/C (dose: 25.0 mg/kg/injection, schedule: Q04DX003 (ip), vehicle: saline with Tween-80) is reported as 107 % of control.

For `IC1CCC[N-]C1.IC1CCC[N-]C1.[Cl][Pt+2][Cl]` (stereo not drawn), the T/C (dose: 50.0 mg/kg/injection, schedule: Q01DX001 (ip), vehicle: saline with Tween-80) was 95 % of control, the T/C [6] was 93 % of control and the T/C [7] was 95 % of control.

In the case of `ClCC(CCl)c1nncc2ccccc12`, the T/C [3] is reported as 94 % of control, the T/C [4] is reported as 97 % of control and the T/C [5] is reported as 93 % of control.

In the case of `O=C1c2ccccc2C(C2c3ccccc3C(=O)c3ccccc32)c2ccccc21`, the T/C [9] is reported as 110 % of control, the T/C [10] is reported as 96 % of control and the T/C [11] is reported as 100 % of control.

`Cc1cc(C)cc(NCCC#N)c1` was tested, and the T/C (dose: 100.0 mg/kg/injection, schedule: Q01DX009 (ip), vehicle: other) was 98 % of control, the T/C [12] was 106 % of control and the T/C (dose: 200.0 mg/kg/injection, schedule: Q01DX009 (ip), vehicle: other) was 98 % of control. The T/C [16] was 100 % of control, the T/C (dose: 400.0 mg/kg/injection, schedule: Q01DX009 (ip), vehicle: other) was 98 % of control and the T/C [17] was 98 % of control.

In the case of `N#CC1(NC(=O)N(CCCl)N=O)CCCCC1`, the T/C (dose: 6.25 mg/kg/injection, schedule: Q01DX001 (ip), vehicle: distilled water + Tween-80) is reported as 119 % of control and 108 % of control, the T/C (dose: 25.0 mg/kg/injection, schedule: Q01DX001 (ip), vehicle: distilled water + Tween-80) is reported as 150 % of control and the T/C (dose: 50.0 mg/kg/injection, schedule: Q01DX001 (ip), vehicle: distilled water + Tween-80) is reported as 172 % of control and 258 % of control.
